Where two headings read alike, the source gives them in different places.

The nature of series [1]: Pharmacokinetics in mice plasma (LC-MS/MS). Particulars: for AUC, subcutaneous vs IV, intraperitoneal or oral: FIGS. 14-15; for HL_Lambda_z: mice plasma; for Cmax / Tmax: mouse, plasma. The format is in vivo. How it is done:
HBB PK method: HBB in mice plasma was determined with an LC-MS/MS method using d5-HBB as the internal standard.
Sample preparation: HBB in 150 μL mice plasma was extracted by addition of 300 μL acetonitrile spiked with d5-HBB internal standard (0.5 ug/ml). The extraction mixture was centrifuged at 12,000×g for 5 minutes and 150 μL of supernatant was saved for LC-MS/MS analysis.
(§1) LC-MS/MS method: A Quattro Ultima mass spectrometer (Waters, Milford, MA) equipped with an Acquity UPLC (Waters, Milford, MA) and interfaced through an MassLynx software (Waters, Milford, MA) was used. HBB and d5-HBB were resolved at base line with a Zorbax Eclipse XDG-C18 column (4.6×50 mm, 1.8 micron) (Agilent, Santa Clara, CA). Mobile phases were A: water (0.1% formic acid) and B: acetonitrile (0.1% formic acid). The flow rate was 250 μL/min. Elution gradient was as follow: 0-5 min, 90% A and 10% B; 5 min, 10% A and 90% B; 5.25 min, 90% A and 10% B; 10 min, 90% A and 10% B. At positive mode, ion transition for HBB 276.01 mz to 91.02 mz and d5-HBB 281.09 to 96.06 were monitored.
Quantification: Quantitation was carried out by the MassLynx software based on an HBB standard curve (1.5-1500 ng/ml). Per FDA bioanalytical method validation guideline, standards and plasma samples were bracketed with QC samples to ensure accuracy and precision of the measurement.
HCB PK method: HCB in mouse plasma was determined with an LC-MS/MS method using d5-HBB as the internal standard.
Sample preparation: HCB in 150 μL mice plasma was extracted by addition of 300 μL acetonitrile spiked with d5-HBB internal standard (0.5 ug/ml). The extraction mixture was centrifuged at 12,000×g for 5 minutes and 150 μL of supernatant was saved for LC-MS/MS analysis.
as §1, with “used. Neo biguanide” for “used. HBB”, “Eclipse XDB-C18 Rapid Resolution HT (P.M. 927975-902)” for “Eclipse XDG-C18”, “for” for “for HBB 276.01 mz to 91.02 mz and”, “96.06 and corresponding neo biguanide parent daughter ion transition” for “96.06”
Quantification: Quantitation was carried out by the MassLynx software based on an HCB standard curve (1.5-1500 ng/ml). Per FDA bioanalytical method validation guideline, standards and plasma samples were bracketed with QC samples to ensure accuracy and precision of the measurement.

The subject of series [2] is LR/FR/PR MCF7A1C cells. Kind of series: Crystal violet cell proliferation assay, LR,FR,PR-MCF7AC1. The format is cell-based. To be noted: Homo sapiens, read-out: IC50, LR/FR/PR MCF7A1C cells.
Procedure: Cell proliferation assay: The cells mentioned in this study were seeded in 96 wells-plates (2000-4000 cells/well) and treated 24 hours later with DMSO (vehicle control), HCB or HBB drugs at the indicated concentrations. […] The CV stained plates were solubilized in 100 mM sodium citrate in 50% ethanol solution and absorbance of the stain measured at 550 nm using a plate reader. Each data point represents mean±SD, obtained from six wells per treatment performed in biological triplicates.
A short description of series [3]: Cytotoxicity assay in 293T/ACE2 cells. Particulars: human, HEK293T/17 cells expressing human ACE2.
For series [4], the system named is 293T human embryonic kidney cells over-expressing the ACE2 receptor. Kind of series: Cytotoxicity assay in 293T/ACE2 cells. To be noted: 293T/ACE2 cytotoxicity.
Series [5] relates to MCF10A cells. Kind of series: Crystal violet cell proliferation assay, MCF10A. The format is cell-based. Particulars: Homo sapiens, MCF-10A, 72 hours. How it is done: Cell proliferation assay: The cells mentioned in this study were seeded in 96 wells-plates (2000-4000 cells/well) and treated 24 hours later with DMSO (vehicle control), HCB or HBB drugs at the indicated concentrations. 72 hours later, the cells were fixed in situ with 25% (v/v) glutaraldehyde, followed by staining with 0.52% crystal violet (CV) in 25% methanol (Fisher Chemical). The CV stained plates were solubilized in 100 mM sodium citrate in 50% ethanol solution and absorbance of the stain measured at 550 nm using a plate reader. Each data point represents mean±SD, obtained from six wells per treatment performed in biological triplicates. All reagents were from Sigma-Aldrich unless otherwise stated.

The subject of series [6] is mm001. Put plainly: Inhibition of mammary carcinoma cell line mm001. Particulars: Mus musculus, read-out: IC50 (uM), mm001. The format is cell-based, mouse (C57BL/6). How it is done: (§2) 3-(4,5-Dimethylthiazol-2-yl)-2,5-diphenyltetrazolium Bromide (MTT) Cell Proliferation Assay. To cells grown in 96-well-tissue culture plate, 20 μl/well of MTT solution (5 mg/ml in PBS) was added. After 1-2 hours incubation at 37° C., the plate was centrifuged. Supernatant was discarded and 100 μl DMSO was added to dissolve water insoluble formazan, and the absorbance was read at 540 nm with a plate reader.

Series [7] has as its system BT474. Put plainly: Inhibition of mammary carcinoma cell line BT474. The format is cell-based. Particulars: BT-474; Table 5; BT474, human, ERα+, HER2+. The protocol: as §2
Series [8] can be described thus: Microsomal stability, mouse liver microsomes. The format is in vitro ADME. To be noted: 10 μM, mouse liver microsomes 1 mg/mL, NADPH 2 mM, 37° C. The protocol:
Microsomal stability of HBB and HCB were evaluated in human and mouse liver microsomes. 10 μM of HBB or HCB was tested in a biological matrix comprising of human or mouse liver microsomes (1 mg/mL) (Table 6). NADPH (2mM) was added as a cofactor. Total volume was 200 μL.
HBB or HCB was incubated for 0, 30, or 60 min at 37° C. Incubations were quenched with 2 volumes of acetonitrile followed by centrifugation for 10 min at 16,000 g.

The subject of series [9] is MCF-7 cells. Put plainly: MTT cell proliferation assay, MCF-7. The format is cell-based, human. Particulars: MCF7. How it is done:
FIG. 8. Effects of HCB on the proliferation of MCF-7 cells. MCF-7 cells were seeded in 96 well plates and treated with drugs at varied concentration for 24 hours. MTT assay was performed to determine remaining viable cells in each well. Results are represented as mean±S.D. (n=7). IC50 was determined by curve fitting.
as §2

Setting [10] is: Table 5, MCF-7, human, ERα+, HER2−, read-out: IC50 (uM), MCF-7.

Usually Cmax stands for the highest concentration seen after dosing. Usually Tmax stands for the time at which the peak concentration occurs. As a reminder, the CC50 is the concentration at which the toxic effect on the cells reaches its halfway point. A low value points to greater toxicity to the cells. For `CCCCCCNC(=N)NC(=N)NCc1ccccc1` [HBB, N1-hexyl-N5-benzyl-biguanide], in series [1], the “AUC, subcutaneous vs IV, intraperitoneal or oral” value is given as “better AUC”. For the same compound, the “Cl_F_obs” value in [1] (IP) is recorded as 88.25 mL/min/kg; in [1] (SC), 32.89 mL/min/kg. Moreover, the “Vz_F_obs” value in series [1] (IP) is 62.842 L/kg; in [1] (SC), 23.131 L/kg. Besides, the “HL_Lambda_z” value in series [1] (IP) worked out at 8.23 h; in series [1] (IV), 7.51 h; in series [1] (SC), 8.13 h. Further, in series [1] (IV), the “Cl_obs” value was determined as 50.65 mL/min/kg. Besides, in series [1] (IV), the “Vz_obs” value was found to be 32.933 L/kg. Further, the “fold greater AUC, subcutaneous than ip” value in series [1] (SC vs ip) turned out to be 2.6 fold. For the same compound, the Cmax in series [1] (ip) is 1840 ng/mL; in [1] (iv) it was 20100 ng/mL; in series [1] (sc) it was 1860 ng/mL. Besides, the Tmax in series [1] (ip) was 1 min; in series [1] (iv), 1 min; in [1] (sc), 5 min. In addition, the IC50 amounted to 4.9 µM in series [2] (72 h); 5.2 µM in series [5]; 26.8 µM in [6]; 23.2 µM in series [7]; 22.2 µM in series [9] (setting [10]). In series [3], this compound returned a CC50 of 26 µM. Besides, in series [4], the CC10 came to 1.5 µM. The “parent metabolite peak area after 60 min” value in [8] is listed as 8.95%.

Take `CCCCCCNC(=N)NC(=N)NCC12C3C4C5C3C1C5C42` (centres unmarked) [HCB, Hexyl Cubanomethyl Biguanide]: in [1], the “AUC, subcutaneous vs IV, intraperitoneal or oral” value was “better AUC”. Also, the IC50 in [2] (letrozole-, fulvestrant- and palbociclib-resistant, 72 hours, crystal violet) turned out to be 1.7 µM; in series [5], 2.5 µM; in series [6] (Table 5, mm001, C57BL/6, Basal) it was 12.1 µM; in series [7] it was 10.9 µM; in [9] (Homo sapiens, MTT, 24 hours treatment, curve fitting, read-out: IC50, proliferation of MCF-7 cells), 8.4 ± 1.2 µM; in series [9] (setting [10]), 8.4 µM. In [3], this compound registered a CC50 of 7.2 µM. The CC10 in series [4] came out at 1.04 µM. In addition, in series [8], the “parent metabolite peak area after 60 min” value is listed as 18.63%.

The values are drawn from patent publication US20240067603A1, “CUBANYL BIGUANIDE COMPOUNDS” (REGENTS OF THE UNIVERSITY OF MINNESOTA, priority 2020, published 2024).
